Source: US11491169B2, “Remdesivir treatment methods” (Gilead Sciences, Inc., priority 2020, dated 2022)
Where two headings read alike, the source gives them in different places.

What was measured:
[1] = system: SARS-CoV-2; assay: SARS-CoV-2 Nluc antiviral assay in A549-hACE2 cells; type: cell-based; settings: for Nluc signal (SARS-CoV-2 replication): 10 μM of CQ or HCQ alone
[2] = system: A549-hACE2 cells; settings: for Mean RDV-TP: human, 1 μM
[3] = system: NHBE cultures
[4] = system: HEp-2 cells
[5] = doses recommended under the former EUA guidance for COVID-19; cited from earlier work
[6] = system: respiratory syncytial virus (RSV); assay: microbe, parasite or virus in culture; type: cell-based; settings: human respiratory syncytial virus, HEp-2, read-out: Formula Ia RSV EC50, HEp2 cells
Procedure: The cells were then infected with RSV A2 virus diluted in DMEM medium+GlutaMAX at an MOI=4 and incubated for 4 days at 37° C. and 5% CO2. The final volume in each well was 200 μL. Uninfected and untreated wells were included as controls for 100% cell viability. Following the incubation, 100 μL of culture supernatant was removed from each well and replaced with 100 μL of CellTiter-Glo reagent (Promega). The plates were then rocked for 2 minutes followed by a 10-minute incubation at 25° C. Cell viability was then assessed by measuring luminescence signal using and Envision plate reader. Values were normalized to the uninfected and infected DMSO controls (as 100% and 0% […], respectively) and data was fit using non-linear regression analysis with the XLfit software.

[7] = system: HEp-2 cells; assay: Formula Ia triphosphate (RDV-TP) formation in HEp-2 cells, LC-MS/MS; settings: 2 h
[8] = system: A549-hACE2 cells; settings: Formula Ia and HCQ combination concentrations analyzed (data not shown)
[9] = Severe acute respiratory syndrome coronavirus 2, read-out: SARS-CoV-2 Nluc EC50, A549-hACE2 cells, single agent + DMSO

CCN(CC)CCCC(C)Nc1ccnc2cc(Cl)ccc12 (centres unmarked) [CQ, N′-(7-chloroquinolin-4-yl)-N,N-diethyl-pentane-1,4-diamine, reference compound]
Nluc signal (SARS-CoV-2 replication) ([1]; A549-hACE2 cells): fully suppressed | EC50 [1, 9]: ~451 nM | Effect on Formula Ia-TP levels [2]: did not significantly reduce | Effect on production of Formula Ia-TP [2]: did significantly lower | Effect on Formula Ia-TP levels [3]: not statistically significant | Effect on formation of intracellular Formula Ia-TP [4]: dose-dependent reduction | Average systemic exposures [5]: 610 to 760 nM

CCC(CC)COC(=O)[C@H](C)N[P@](=O)(OC[C@H]1O[C@@](C#N)(c2ccc3c(N)ncnn23)[C@H](O)[C@@H]1O)Oc1ccccc1 [Formula Ia, (S)-2-ethylbutyl 2-(((S)-(((2R,3S,4R,5R)-5-(4-aminopyn-olo[2,1-f][1,2,4]triazin-7-yl)-5-cyano-3,4-dihydroxytetrahydrofuran-2-yl)methoxy)(phenoxy)phosphoryl)amino)propanoate]
EC50 ([6]; chloroquine 0 nM): 49.5 ± 13.1 nM | EC50 ([6]; chloroquine 10 nM): 58.4 ± 12.8 nM | EC50 ([6]; chloroquine 40 nM): 72.1 ± 24.8 nM | EC50 ([6]; chloroquine 160 nM): 99.6 ± 30.3 nM | EC50 ([6]; chloroquine 640 nM): 138 ± 33.8 nM | EC50 ([6]; chloroquine 2560 nM): 209 ± 18.2 nM | EC50 ([1]; read-out: SARS-CoV-2 Nluc EC50, A549-hACE2 cells, + 10 nm HCQ): 63.6 nM | EC50 ([1]; read-out: SARS-CoV-2 Nluc EC50, A549-hACE2 cells, + 40 nm HCQ): 50.7 nM | EC50 ([1]; read-out: SARS-CoV-2 Nluc EC50, A549-hACE2 cells, + 640 nm CQ): 46 nM | EC50 ([1]; read-out: SARS-CoV-2 Nluc EC50, A549-hACE2 cells, + 2500 nm HCQ): 63 nM | Mean RDV-TP ([2]; 2 h): 3.6 ± 0.2 pmol/million cells | Mean RDV-TP ([2]; 24 h): 6.8 ± 1.3 pmol/million cells | Mean RDV-TP ([2]; 48 h): 3.0 ± 0.5 pmol/million cells | Mean RDV-TP ([7]; 1 μM Formula Ia + 1 μM CQ): BLQ | Mean RDV-TP ([7]; 1 μM Formula Ia + 1 μM HCQ): BLQ | Mean RDV-TP ([7]; 1 μM Formula Ia + 10 μM CQ): BLQ | Mean RDV-TP ([7]; 1 μM Formula Ia + 10 μM HCQ): BLQ | Mean RDV-TP ([7]; 1 μM Formula Ia alone): BLQ

CCN(CCO)CCCC(C)Nc1ccnc2cc(Cl)ccc12 (centres unmarked) [HCQ, 2-[{4-[(7-chloroquinolin-4-yl)amino]pentyl}(ethyl)amino]ethanol, reference compound]
Nluc signal (SARS-CoV-2 replication) ([1]; A549-hACE2 cells): fully suppressed | EC50 [1, 9]: ~365 nM | Cytotoxicity [8]: not observed | Average systemic exposures [5]: approximately 1.7 μM
